# Patent US20070270418A1, “Inhibitors of P38 and Methods of Using the Same” (priority 2003, published 2007)
# Biological target: T1, p38β (Homo sapiens, UniProt Q15759)
# T1 construct: p38 MAP Kinases are recombinant human full-length proteins with an amino-terminal GST fusion; GST (N); purchased Upstate (Charlottesville, Va.); host or cells: E. coli
# Test: Kinase selectivity, ATF2 phosphorylation ELISA
# Format: biochemical
# Conditions: not given
# Method: All kinases and the substrate ATF2 are acquired from Upstate (Charlottesville, Va.). p38 MAP Kinases are recombinant human full-length proteins with an amino-terminal GST fusion, expressed in and purified from E. coli. ATF2 is a GST fusion protein containing amino acids 19-96 of human ATF2 expressed in E. coli. All proteins were aliquoted and stored at −80° C.
# p38 MAP Kinase assays are performed using an assay buffer containing 25 mM HEPES, pH 7.5, 10 mM MgCl2, 2 mM DTT, 20 mM β-glycerophosphate, 0.1 mM Na3VO4, 40 μM ATP and 1.25 μM of ATF2, together with 6 ng of p38α protein, 12 ng p38β protein, 1.5 ng p38γ, or 0.4 ng JNK2α2. Compounds are serially diluted in DMSO and 2 μL of test compound at 25× final concentration is used. The vehicle control receives DMSO only. Test compounds are pre-incubated with 20 μl of enzyme in kinase buffer (25 mM HEPES, pH 7.5, 10 mM MgCl2, 2 mM DTT, 20 mM 3-glycerophosphate and 0.1 mM Na3VO4) at room temperature for 15 minutes. […] The reactions are incubated for 30 minutes at 37° C. and terminated by the addition of 18 μl of 200 mM EDTA. An ELISA method is used to measure the phosphorylation of ATF2 at Thr 69. High binding 96-well plates (Corning 3369) are coated with 50 μl of kinase reaction for 1 hour at 37° C. The coated plates are washed with 200 μl washing buffer (25 mM Tris HCl, pH 8.3, 192 mM glycine, 0.1% SDS and 0.05% Tween-20) three times. The plates are then washed three times with SuperBlock in TBS (Pierce, 37535). After blocking, plates are incubated with 50 μl of rabbit anti-phospho-ATF2 antibody (Cell Signaling, 9221 L, 1:500) for 30 minutes at 37° C. Plates are washed three times with washing buffer prior to incubation with 50 μl HRP-conjugated goat anti-rabbit antibody (Cell Signaling, 7074, 1:500) for 30 minutes at 37° C. Plates are then washed three times with washing buffer before incubation with 50 μl of Ultra TMB-ELISA (Pierce, 34028) for 8 minutes at room temperature. Finally, 50 μl of phosphoric acid (1 M) is added to stop reactions and plate absorbance is read at 450 nm on a SpectraMax 250 plate reader.
# A selectivity panel is used to test the cross-reactivity of compounds of the invention with the β and γ isoforms of p38 MAP kinase, Src^p60 and JNK2α2. The p38β, p38γ, and JNK2α2 assays are described in Example 4. The Src^p60 assay measures the ability of compounds to inhibit Src^p60-catalyzed phosphorylation of a peptide substrate.
# T1 sequence (Q15759 whole entry, the tested form may be a part): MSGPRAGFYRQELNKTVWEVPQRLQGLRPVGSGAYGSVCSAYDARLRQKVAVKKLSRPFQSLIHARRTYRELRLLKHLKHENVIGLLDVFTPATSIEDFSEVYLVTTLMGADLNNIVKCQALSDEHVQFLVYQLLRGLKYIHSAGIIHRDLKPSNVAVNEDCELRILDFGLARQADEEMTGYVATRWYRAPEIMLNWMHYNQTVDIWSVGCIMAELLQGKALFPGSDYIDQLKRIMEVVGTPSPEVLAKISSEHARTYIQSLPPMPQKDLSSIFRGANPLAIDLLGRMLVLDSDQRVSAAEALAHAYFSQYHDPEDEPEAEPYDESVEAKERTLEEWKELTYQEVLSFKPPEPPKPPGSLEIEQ
row,SMILES,IC50 [nM]
1,CS(=O)(=O)N1CCC(Nc2nccc(-c3c(-c4ccc(F)cc4)nc4occn34)n2)CC1 [CCLXXIX],1.8
2,CC(=O)N1CCC(Nc2nccc(-c3c(-c4ccc(F)cc4)nc4occn34)n2)CC1 [CCLXXVIII],6.3
3,CN1[C@@H]2CC[C@H]1C[C@@H](Nc1nccc(-c3c(-c4ccc(F)cc4)nc4occn34)n1)C2 [CCLXXXI],24.6
4,Fc1ccc(-c2nc3occn3c2-c2ccnc(NC3CCNCC3)n2)cc1 [CCLXXX],95.4

# System: collagen-induced arthritis in rats
# Test: In vivo established type II collagen arthritis study
# Parameters: species or system Female Lewis rats
# Conditions: Rattus norvegicus, po, oral gavage bid, days 1-7 of arthritis, first column so headed (c3), read-out: ED50 summed ankle histology
# Method: Compounds are tested in the collagen-induced model of arthritis in rats. Female Lewis rats (0.16-0.2 kg) are injected subcutaneously at the base of the tail and two sites on the back on day 0 and 6 with 300 μl of Freund's Incomplete Adjuvant containing 2 mg/ml of Bovine Type II Collagen. On day 9 of the study, caliper measurements of both hind leg ankle joints are performed. This measurement is considered the normal, pre-disease measurement. When ankle swelling is clearly established in at least one hind paw (caliper measurement increase from 0.263 to 0.282 inches), rats are enrolled into the treatment phase of the study. This occurs on day 10 or 11 of the study and is considered to be day 1 of arthritis. Enrolled animals are randomized and administered vehicle control or compound (1, 3.3, 10, or 30 mg/kg, bid), unless otherwise indicated, or dexamethasone (0.0375 mg/kg, bid) via oral gavage on days 1-7 of arthritis (treatment days). Ankle diameters are measured on each day of treatment. Mean increases in ankle diameter for 7 lead compounds are shown below in FIGS. 3-9.
# Following sacrifice on day 7, both hind paws are removed from each animal and weighed. Knees and ankles from all animals in all groups are preserved, decalcified in 5% formic acid and trimmed into two approximately equal longitudinal (ankles) or frontal (knees) halves, dehydrated, cleared, infiltrated, and embedded in paraffin. Blocks are sectioned and stained with Toluidine Blue.
# Tissues are examined microscopically and scored for knee and ankle inflammation (cellular infiltration), pannus formation and infiltration, cartilage damage (loss of Toluidine staining and collagen disruption) and bone resorption. Scoring is on a scale from 0-5, where a score of 0 is normal and a score of 5 indicates severe damage or evidence of disease or both.
row,SMILES,ED50 [mg/kg]
1,CS(=O)(=O)N1CCC(Nc2nccc(-c3c(-c4ccc(F)cc4)nc4occn34)n2)CC1 [CCLXXIX],4.29
2,CC(=O)N1CCC(Nc2nccc(-c3c(-c4ccc(F)cc4)nc4occn34)n2)CC1 [CCLXXVIII],3.09
3,CN1[C@@H]2CC[C@H]1C[C@@H](Nc1nccc(-c3c(-c4ccc(F)cc4)nc4occn34)n1)C2 [CCLXXXI],0.93
4,Fc1ccc(-c2nc3occn3c2-c2ccnc(NC3CCNCC3)n2)cc1 [CCLXXX],7.6

# Same assay, conditions: Rattus norvegicus, po, oral gavage bid, days 1-7 of arthritis, read-out: ED50 ankle diameter
row,SMILES,ED50 [mg/kg]
1,CS(=O)(=O)N1CCC(Nc2nccc(-c3c(-c4ccc(F)cc4)nc4occn34)n2)CC1 [CCLXXIX],2.09
2,CC(=O)N1CCC(Nc2nccc(-c3c(-c4ccc(F)cc4)nc4occn34)n2)CC1 [CCLXXVIII],2.04
3,CN1[C@@H]2CC[C@H]1C[C@@H](Nc1nccc(-c3c(-c4ccc(F)cc4)nc4occn34)n1)C2 [CCLXXXI],0.98
4,Fc1ccc(-c2nc3occn3c2-c2ccnc(NC3CCNCC3)n2)cc1 [CCLXXX],5.43

# Same assay, conditions: Rattus norvegicus, po, oral gavage bid, days 1-7 of arthritis, read-out: ED50 paw weights
row,SMILES,ED50 [mg/kg]
1,CS(=O)(=O)N1CCC(Nc2nccc(-c3c(-c4ccc(F)cc4)nc4occn34)n2)CC1 [CCLXXIX],2.57
2,CC(=O)N1CCC(Nc2nccc(-c3c(-c4ccc(F)cc4)nc4occn34)n2)CC1 [CCLXXVIII],1.55
3,CN1[C@@H]2CC[C@H]1C[C@@H](Nc1nccc(-c3c(-c4ccc(F)cc4)nc4occn34)n1)C2 [CCLXXXI],0.94
4,Fc1ccc(-c2nc3occn3c2-c2ccnc(NC3CCNCC3)n2)cc1 [CCLXXX],3.51

# Same assay, conditions: Rattus norvegicus, po, oral gavage bid, days 1-7 of arthritis, second column so headed (c4), read-out: ED50 summed ankle histology
row,SMILES,ED50 [mg/kg]
1,CS(=O)(=O)N1CCC(Nc2nccc(-c3c(-c4ccc(F)cc4)nc4occn34)n2)CC1 [CCLXXIX],0.72
2,CC(=O)N1CCC(Nc2nccc(-c3c(-c4ccc(F)cc4)nc4occn34)n2)CC1 [CCLXXVIII],1.24
3,CN1[C@@H]2CC[C@H]1C[C@@H](Nc1nccc(-c3c(-c4ccc(F)cc4)nc4occn34)n1)C2 [CCLXXXI],0.2
4,Fc1ccc(-c2nc3occn3c2-c2ccnc(NC3CCNCC3)n2)cc1 [CCLXXX],1.04

# Biological target: T2, p38α (Homo sapiens, UniProt Q16539)
# T2 construct: p38 MAP Kinases are recombinant human full-length proteins with an amino-terminal GST fusion; GST (N); purchased Upstate (Charlottesville, Va.); host or cells: E. coli
# T2 sequence (Q16539 whole entry, the tested form may be a part): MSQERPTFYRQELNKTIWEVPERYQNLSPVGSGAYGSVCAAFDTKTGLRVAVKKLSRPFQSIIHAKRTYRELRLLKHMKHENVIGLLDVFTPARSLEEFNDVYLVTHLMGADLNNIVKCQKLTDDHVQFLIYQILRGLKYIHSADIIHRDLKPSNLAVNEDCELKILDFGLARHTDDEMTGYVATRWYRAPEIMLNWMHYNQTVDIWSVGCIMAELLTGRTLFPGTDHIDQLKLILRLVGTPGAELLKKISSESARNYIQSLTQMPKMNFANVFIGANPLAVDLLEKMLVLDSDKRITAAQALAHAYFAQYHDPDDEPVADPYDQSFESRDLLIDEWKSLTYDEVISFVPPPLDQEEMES
# Test: p38 MAP Kinase assay, ATF2 phosphorylation (ELISA)
# Format: biochemical
# Conditions: 40 μM ATP
# In short: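 Recombinant full-length GST-tagged human p38α (6 ng) pre-incubated 15 min at room temperature with compound, then reacted 30 min at 37° C with 40 μM ATP and 1.25 μM GST-ATF2 (aa 19-96) in HEPES pH 7.5/MgCl2 buffer. EDTA stop; ATF2 Thr69 phosphorylation measured by anti-phospho-ATF2 ELISA at 450 nm.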
row,SMILES,IC50 [nM]
1,CS(=O)(=O)N1CCC(Nc2nccc(-c3c(-c4ccc(F)cc4)nc4occn34)n2)CC1 [CCLXXIX],0.71
2,CC(=O)N1CCC(Nc2nccc(-c3c(-c4ccc(F)cc4)nc4occn34)n2)CC1 [CCLXXVIII],2.38
3,CN1[C@@H]2CC[C@H]1C[C@@H](Nc1nccc(-c3c(-c4ccc(F)cc4)nc4occn34)n1)C2 [CCLXXXI],4.91
4,Fc1ccc(-c2nc3occn3c2-c2ccnc(NC3CCNCC3)n2)cc1 [CCLXXX],13.1

# Biological target: T3, InsR (Homo sapiens, UniProt P06213)
# T3 construct: purchased Upstate (Charlottesville, Va.)
# T3 sequence (P06213 28-1382, species assumed): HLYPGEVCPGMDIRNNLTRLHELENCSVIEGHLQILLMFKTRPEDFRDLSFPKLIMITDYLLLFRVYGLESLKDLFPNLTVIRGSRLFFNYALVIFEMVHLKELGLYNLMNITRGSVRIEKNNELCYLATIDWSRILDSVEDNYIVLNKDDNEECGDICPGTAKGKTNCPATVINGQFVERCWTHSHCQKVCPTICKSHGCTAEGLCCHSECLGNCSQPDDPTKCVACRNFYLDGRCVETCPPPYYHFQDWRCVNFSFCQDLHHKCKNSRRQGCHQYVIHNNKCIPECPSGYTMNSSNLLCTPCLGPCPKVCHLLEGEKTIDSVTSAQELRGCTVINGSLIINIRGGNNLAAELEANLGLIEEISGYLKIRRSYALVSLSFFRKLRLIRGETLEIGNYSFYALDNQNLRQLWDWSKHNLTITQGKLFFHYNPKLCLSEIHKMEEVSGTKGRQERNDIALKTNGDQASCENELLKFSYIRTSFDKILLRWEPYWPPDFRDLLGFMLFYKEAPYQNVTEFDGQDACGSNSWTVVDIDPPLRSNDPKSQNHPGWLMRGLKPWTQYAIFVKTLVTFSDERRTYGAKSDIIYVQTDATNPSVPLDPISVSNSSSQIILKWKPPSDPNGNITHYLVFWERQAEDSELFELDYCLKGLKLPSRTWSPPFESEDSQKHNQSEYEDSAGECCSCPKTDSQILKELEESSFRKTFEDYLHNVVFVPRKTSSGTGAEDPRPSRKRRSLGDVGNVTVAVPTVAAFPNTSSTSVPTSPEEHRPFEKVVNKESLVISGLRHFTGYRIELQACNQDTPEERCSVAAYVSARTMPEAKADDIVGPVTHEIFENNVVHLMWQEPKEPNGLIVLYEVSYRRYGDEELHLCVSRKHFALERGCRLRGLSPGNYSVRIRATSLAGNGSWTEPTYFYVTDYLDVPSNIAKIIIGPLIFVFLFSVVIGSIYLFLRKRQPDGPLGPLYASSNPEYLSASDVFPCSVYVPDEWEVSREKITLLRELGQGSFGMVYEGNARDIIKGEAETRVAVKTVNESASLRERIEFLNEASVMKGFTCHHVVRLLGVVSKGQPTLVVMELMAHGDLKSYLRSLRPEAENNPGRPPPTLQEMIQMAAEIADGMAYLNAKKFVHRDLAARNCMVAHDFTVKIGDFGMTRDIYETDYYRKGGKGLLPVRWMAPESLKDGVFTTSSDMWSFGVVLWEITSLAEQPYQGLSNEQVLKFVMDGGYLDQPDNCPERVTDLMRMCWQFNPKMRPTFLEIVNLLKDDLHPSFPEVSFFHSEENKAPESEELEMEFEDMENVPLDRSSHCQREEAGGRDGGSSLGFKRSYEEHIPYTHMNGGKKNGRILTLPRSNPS
# Test: Broad selectivity panel, 32P incorporation
# Format: biochemical
# Conditions: 0.1 μM compound, 40 μM ATP; read-out: Percent inhibition InsR
# Method: (§1) Various compounds of the present invention are screened against a panel of 24 additional kinases (Upstate, Charlottesville, Va.). Compounds are tested 0.1 μM and 1 μM in reactions containing 40 μM ATP. Incorporation of radiolabeled phosphate (^32P) into each kinase substrate is measured in the presence and absence of test compound.
row,SMILES,inhibition at 0.1 µM [%]
1,CS(=O)(=O)N1CCC(Nc2nccc(-c3c(-c4ccc(F)cc4)nc4occn34)n2)CC1 [CCLXXIX],9
2,CC(=O)N1CCC(Nc2nccc(-c3c(-c4ccc(F)cc4)nc4occn34)n2)CC1 [CCLXXVIII],-28
3,CN1[C@@H]2CC[C@H]1C[C@@H](Nc1nccc(-c3c(-c4ccc(F)cc4)nc4occn34)n1)C2 [CCLXXXI],-7

# Same assay, conditions: 1 μM compound, 40 μM ATP; read-out: Percent inhibition InsR
row,SMILES,inhibition at 1 µM [%]
1,CS(=O)(=O)N1CCC(Nc2nccc(-c3c(-c4ccc(F)cc4)nc4occn34)n2)CC1 [CCLXXIX],2
2,CC(=O)N1CCC(Nc2nccc(-c3c(-c4ccc(F)cc4)nc4occn34)n2)CC1 [CCLXXVIII],-4
3,CN1[C@@H]2CC[C@H]1C[C@@H](Nc1nccc(-c3c(-c4ccc(F)cc4)nc4occn34)n1)C2 [CCLXXXI],14

# Biological target: T4, Syk (Homo sapiens, UniProt P43405)
# T4 construct: purchased Upstate (Charlottesville, Va.)
# Test: Broad selectivity panel, 32P incorporation
# Format: biochemical
# Conditions: 0.1 μM compound, 40 μM ATP; read-out: Percent inhibition Syk
# Method: as §1
row,SMILES,inhibition at 0.1 µM [%]
1,CS(=O)(=O)N1CCC(Nc2nccc(-c3c(-c4ccc(F)cc4)nc4occn34)n2)CC1 [CCLXXIX],3
2,CN1[C@@H]2CC[C@H]1C[C@@H](Nc1nccc(-c3c(-c4ccc(F)cc4)nc4occn34)n1)C2 [CCLXXXI],17
3,Fc1ccc(-c2nc3occn3c2-c2ccnc(NC3CCNCC3)n2)cc1 [CCLXXX],5

# Same assay, conditions: 1 μM compound, 40 μM ATP; read-out: Percent inhibition Syk
row,SMILES,inhibition at 1 µM [%]
1,CS(=O)(=O)N1CCC(Nc2nccc(-c3c(-c4ccc(F)cc4)nc4occn34)n2)CC1 [CCLXXIX],10
2,CN1[C@@H]2CC[C@H]1C[C@@H](Nc1nccc(-c3c(-c4ccc(F)cc4)nc4occn34)n1)C2 [CCLXXXI],33
3,Fc1ccc(-c2nc3occn3c2-c2ccnc(NC3CCNCC3)n2)cc1 [CCLXXX],40

# Biological target: T5, Lck (Homo sapiens, UniProt P06239)
# T5 construct: purchased Upstate (Charlottesville, Va.)
# T5 sequence (P06239 whole entry, species assumed): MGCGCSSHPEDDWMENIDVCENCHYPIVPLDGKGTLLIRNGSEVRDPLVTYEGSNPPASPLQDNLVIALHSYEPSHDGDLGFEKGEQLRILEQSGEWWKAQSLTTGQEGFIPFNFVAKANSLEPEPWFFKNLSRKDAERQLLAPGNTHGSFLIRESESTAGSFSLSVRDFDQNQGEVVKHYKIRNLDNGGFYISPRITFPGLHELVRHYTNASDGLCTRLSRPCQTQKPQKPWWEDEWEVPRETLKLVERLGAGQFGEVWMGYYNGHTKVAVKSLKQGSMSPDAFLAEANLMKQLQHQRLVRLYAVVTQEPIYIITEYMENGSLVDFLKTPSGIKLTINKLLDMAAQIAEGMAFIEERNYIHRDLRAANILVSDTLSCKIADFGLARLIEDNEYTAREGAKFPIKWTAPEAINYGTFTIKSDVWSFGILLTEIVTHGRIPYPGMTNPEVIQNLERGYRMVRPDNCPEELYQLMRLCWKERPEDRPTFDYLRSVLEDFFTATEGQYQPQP
# Test: Broad selectivity panel, 32P incorporation
# Format: biochemical
# Conditions: 0.1 μM compound, 40 μM ATP; read-out: Percent inhibition Lck
# Method: as §1
row,SMILES,inhibition at 0.1 µM [%]
1,CS(=O)(=O)N1CCC(Nc2nccc(-c3c(-c4ccc(F)cc4)nc4occn34)n2)CC1 [CCLXXIX],2
2,CC(=O)N1CCC(Nc2nccc(-c3c(-c4ccc(F)cc4)nc4occn34)n2)CC1 [CCLXXVIII],5
3,CN1[C@@H]2CC[C@H]1C[C@@H](Nc1nccc(-c3c(-c4ccc(F)cc4)nc4occn34)n1)C2 [CCLXXXI],26
4,Fc1ccc(-c2nc3occn3c2-c2ccnc(NC3CCNCC3)n2)cc1 [CCLXXX],-3

# Same assay, conditions: 1 μM compound, 40 μM ATP; read-out: Percent inhibition Lck
row,SMILES,inhibition at 1 µM [%]
1,CS(=O)(=O)N1CCC(Nc2nccc(-c3c(-c4ccc(F)cc4)nc4occn34)n2)CC1 [CCLXXIX],-3
2,CC(=O)N1CCC(Nc2nccc(-c3c(-c4ccc(F)cc4)nc4occn34)n2)CC1 [CCLXXVIII],31
3,CN1[C@@H]2CC[C@H]1C[C@@H](Nc1nccc(-c3c(-c4ccc(F)cc4)nc4occn34)n1)C2 [CCLXXXI],35
4,Fc1ccc(-c2nc3occn3c2-c2ccnc(NC3CCNCC3)n2)cc1 [CCLXXX],27
